In ChEMBL document CHEMBL3885881, “DrugMatrix”:

Species: Rattus norvegicus
Assay: DrugMatrix - Regimen: Daily Repeat
Type: toxicity, organism-based, Sprague-Dawley
Set-up: regimen Daily Repeat, gender Male, age 6-8 weeks
Conditions: in vivo, po, route oral GAVAGE, vehicle .5 % CMC; for BASOPHIL / EOSINOPHIL / ERYTHROCYTE COUNT / HEMATOCRIT / HEMOGLOBIN / LEUKOCYTE COUNT / LYMPHOCYTE / MEAN CORPUSCULAR HEMOGLOBIN / MEAN CORPUSCULAR HEMOGLOBIN CONCENTRATION / MEAN CORPUSCULAR VOLUME / MONOCYTE / NEUTROPHIL / PLATELET COUNT: tissue Blood; for ALANINE AMINOTRANSFERASE / ALBUMIN / ALKALINE PHOSPHATASE / ASPARTATE AMINOTRANSFERASE / BLOOD UREA NITROGEN / CHLORIDE / CHOLESTEROL / CREATINE PHOSPHOKINASE / CREATININE / GLUCOSE / PHOSPHORUS / POTASSIUM / SODIUM / TOTAL BILIRUBIN / TOTAL PROTEIN: tissue Plasma
[1] = 20 mg/kg, 72 h, dose level Low, time 3 day
[2] = 20 mg/kg, 120 h, dose level Low, time 5 day
[3] = 380 mg/kg, 72 h, dose level High, time 3 day
[4] = 380 mg/kg, 120 h, dose level High, time 5 day
[5] = 0 mg/kg, 72 h, dose level Control, time 3 day
[6] = 0 mg/kg, 120 h, dose level Control, time 5 day
[7] = 30 mg/kg, 72 h, dose level Low, time 3 day
[8] = 30 mg/kg, 120 h, dose level Low, time 5 day

## CNCCCC12CCC(c3ccccc31)c1ccccc12 [MAPROTILINE]
[1]
  BASOPHIL: 0%
  EOSINOPHIL: 0.33%
  ERYTHROCYTE COUNT: 5.97 x10E6/uL
  HEMATOCRIT: 35.97%
  HEMOGLOBIN: 14.2 G/DL
  LEUKOCYTE COUNT: 11.3 x10E3/uL
  LYMPHOCYTE: 87.33%
  MEAN CORPUSCULAR HEMOGLOBIN: 23.77 pg
  MEAN CORPUSCULAR HEMOGLOBIN CONCENTRATION: 39.47 G/DL
  MEAN CORPUSCULAR VOLUME: 60.2 fL
  MONOCYTE: 1.67%
  NEUTROPHIL: 10.67%
  PLATELET COUNT: 1123 x10E3/uL
  ALANINE AMINOTRANSFERASE: 39.33 u/L
  ALBUMIN: 3.83 G/DL
  ALKALINE PHOSPHATASE: 403 u/L
  ASPARTATE AMINOTRANSFERASE: 64 u/L
  BLOOD UREA NITROGEN: 12.67 mg/dL
  CHLORIDE: 106.67 MEQ/L
  CHOLESTEROL: 71.67 mg/dL
  CREATINE PHOSPHOKINASE: 175 u/L
  CREATININE: 0.67 mg/dL
  GLUCOSE: 177.33 mg/dL
  PHOSPHORUS: 12.37 mg/dL
  POTASSIUM: 6.9 MEQ/L
  SODIUM: 151.33 MEQ/L
  TOTAL BILIRUBIN: 0.57 mg/dL
  TOTAL PROTEIN: 6.1 G/DL
[2]
  BASOPHIL: 0%
  EOSINOPHIL: 1%
  ERYTHROCYTE COUNT: 6.02 x10E6/uL
  HEMATOCRIT: 36.33%
  HEMOGLOBIN: 15.57 G/DL
  LEUKOCYTE COUNT: 13.27 x10E3/uL
  LYMPHOCYTE: 86.33%
  MEAN CORPUSCULAR HEMOGLOBIN: 25.9 pg
  MEAN CORPUSCULAR HEMOGLOBIN CONCENTRATION: 42.9 G/DL
  MEAN CORPUSCULAR VOLUME: 60.4 fL
  MONOCYTE: 1.33%
  NEUTROPHIL: 11.33%
  PLATELET COUNT: 1112.33 x10E3/uL
  ALANINE AMINOTRANSFERASE: 38.67 u/L
  ALBUMIN: 3.83 G/DL
  ALKALINE PHOSPHATASE: 339.67 u/L
  ASPARTATE AMINOTRANSFERASE: 60 u/L
  BLOOD UREA NITROGEN: 14.33 mg/dL
  CHLORIDE: 108.67 MEQ/L
  CHOLESTEROL: 65.33 mg/dL
  CREATINE PHOSPHOKINASE: 168.67 u/L
  CREATININE: 0.7 mg/dL
  GLUCOSE: 182.33 mg/dL
  PHOSPHORUS: 12 mg/dL
  POTASSIUM: 6.77 MEQ/L
  SODIUM: 149 MEQ/L
  TOTAL BILIRUBIN: 0.6 mg/dL
  TOTAL PROTEIN: 6.27 G/DL
[3]
  BASOPHIL: 0%
  EOSINOPHIL: 0.33%
  ERYTHROCYTE COUNT: 6.59 x10E6/uL
  HEMATOCRIT: 38.93%
  HEMOGLOBIN: 15.5 G/DL
  LEUKOCYTE COUNT: 12 x10E3/uL
  LYMPHOCYTE: 88.67%
  MEAN CORPUSCULAR HEMOGLOBIN: 23.53 pg
  MEAN CORPUSCULAR HEMOGLOBIN CONCENTRATION: 39.8 G/DL
  MEAN CORPUSCULAR VOLUME: 59.17 fL
  MONOCYTE: 2.33%
  NEUTROPHIL: 8.67%
  PLATELET COUNT: 1142.67 x10E3/uL
  ALANINE AMINOTRANSFERASE: 38 u/L
  ALBUMIN: 3.63 G/DL
  ALKALINE PHOSPHATASE: 350.33 u/L
  ASPARTATE AMINOTRANSFERASE: 63.67 u/L
  BLOOD UREA NITROGEN: 14.33 mg/dL
  CHLORIDE: 106.33 MEQ/L
  CHOLESTEROL: 88.67 mg/dL
  CREATINE PHOSPHOKINASE: 166.33 u/L
  CREATININE: 0.5 mg/dL
  GLUCOSE: 164.67 mg/dL
  PHOSPHORUS: 10.83 mg/dL
  POTASSIUM: 6.27 MEQ/L
  SODIUM: 152.33 MEQ/L
  TOTAL BILIRUBIN: 0.4 mg/dL
  TOTAL PROTEIN: 5.93 G/DL
[4]
  BASOPHIL: 0%
  EOSINOPHIL: 1%
  ERYTHROCYTE COUNT: 7.43 x10E6/uL
  HEMATOCRIT: 42%
  HEMOGLOBIN: 16.1 G/DL
  LEUKOCYTE COUNT: 7.2 x10E3/uL
  LYMPHOCYTE: 85%
  MEAN CORPUSCULAR HEMOGLOBIN: 21.7 pg
  MEAN CORPUSCULAR HEMOGLOBIN CONCENTRATION: 38.3 G/DL
  MEAN CORPUSCULAR VOLUME: 56.5 fL
  MONOCYTE: 1%
  NEUTROPHIL: 13%
  PLATELET COUNT: 1275 x10E3/uL
  ALANINE AMINOTRANSFERASE: 81 u/L
  ALBUMIN: 3.7 G/DL
  ALKALINE PHOSPHATASE: 457 u/L
  ASPARTATE AMINOTRANSFERASE: 158 u/L
  BLOOD UREA NITROGEN: 17.5 mg/dL
  CHLORIDE: 108 MEQ/L
  CHOLESTEROL: 44.5 mg/dL
  CREATINE PHOSPHOKINASE: 289 u/L
  CREATININE: 0.65 mg/dL
  GLUCOSE: 206 mg/dL
  PHOSPHORUS: 12.6 mg/dL
  POTASSIUM: 7.3 MEQ/L
  SODIUM: 151.5 MEQ/L
  TOTAL BILIRUBIN: 0.35 mg/dL
  TOTAL PROTEIN: 5.95 G/DL

## CCN(CC)CCNC(=O)c1cc(Cl)c(N)cc1OC [METOCLOPRAMIDE]
[5]
  BASOPHIL: 0%
  EOSINOPHIL: 0.4%
  ERYTHROCYTE COUNT: 6.43 x10E6/uL
  HEMATOCRIT: 37.36%
  HEMOGLOBIN: 13.98 G/DL
  LEUKOCYTE COUNT: 13 x10E3/uL
  LYMPHOCYTE: 81.4%
  MEAN CORPUSCULAR HEMOGLOBIN: 21.9 pg
  MEAN CORPUSCULAR HEMOGLOBIN CONCENTRATION: 37.4 G/DL
  MEAN CORPUSCULAR VOLUME: 58.52 fL
  MONOCYTE: 0.4%
  NEUTROPHIL: 18%
  PLATELET COUNT: 1386 x10E3/uL
  ALANINE AMINOTRANSFERASE: 39.33 u/L
  ALKALINE PHOSPHATASE: 283.83 u/L
  ASPARTATE AMINOTRANSFERASE: 69.5 u/L
  BLOOD UREA NITROGEN: 14.83 mg/dL
  CHLORIDE: 107.33 MEQ/L
  CHOLESTEROL: 75.17 mg/dL
  CREATINE PHOSPHOKINASE: 107.67 u/L
  CREATININE: 0.48 mg/dL
  GLUCOSE: 172.5 mg/dL
  PHOSPHORUS: 10.48 mg/dL
  POTASSIUM: 6.9 MEQ/L
  SODIUM: 152.33 MEQ/L
  TOTAL PROTEIN: 5.9 G/DL
[6]
  BASOPHIL: 0%
  EOSINOPHIL: 0.4%
  ERYTHROCYTE COUNT: 6.96 x10E6/uL
  HEMATOCRIT: 41.12%
  HEMOGLOBIN: 15.24 G/DL
  LEUKOCYTE COUNT: 11.06 x10E3/uL
  LYMPHOCYTE: 88.6%
  MEAN CORPUSCULAR HEMOGLOBIN: 21.96 pg
  MEAN CORPUSCULAR HEMOGLOBIN CONCENTRATION: 37.1 G/DL
  MEAN CORPUSCULAR VOLUME: 59.12 fL
  MONOCYTE: 0.2%
  NEUTROPHIL: 10.8%
  PLATELET COUNT: 1155.8 x10E3/uL
  ALANINE AMINOTRANSFERASE: 36.33 u/L
  ALKALINE PHOSPHATASE: 340.33 u/L
  ASPARTATE AMINOTRANSFERASE: 68.33 u/L
  BLOOD UREA NITROGEN: 15 mg/dL
  CHLORIDE: 108.17 MEQ/L
  CHOLESTEROL: 74.67 mg/dL
  CREATINE PHOSPHOKINASE: 110.67 u/L
  CREATININE: 0.47 mg/dL
  GLUCOSE: 171.33 mg/dL
  PHOSPHORUS: 10.05 mg/dL
  POTASSIUM: 6.7 MEQ/L
  SODIUM: 155.5 MEQ/L
  TOTAL PROTEIN: 6.33 G/DL
[7]
  BASOPHIL: 0%
  EOSINOPHIL: 0%
  ERYTHROCYTE COUNT: 6.75 x10E6/uL
  HEMATOCRIT: 41.55%
  HEMOGLOBIN: 15.45 G/DL
  LEUKOCYTE COUNT: 12.45 x10E3/uL
  LYMPHOCYTE: 81%
  MEAN CORPUSCULAR HEMOGLOBIN: 22.95 pg
  MEAN CORPUSCULAR VOLUME: 61.7 fL
  MONOCYTE: 0%
  NEUTROPHIL: 19%
  PLATELET COUNT: 1187 x10E3/uL
  ALANINE AMINOTRANSFERASE: 40.67 u/L
  ALKALINE PHOSPHATASE: 299.33 u/L
  ASPARTATE AMINOTRANSFERASE: 95.67 u/L
  BLOOD UREA NITROGEN: 12.33 mg/dL
  CHLORIDE: 107.33 MEQ/L
  CHOLESTEROL: 78.67 mg/dL
  CREATINE PHOSPHOKINASE: 421.67 u/L
  CREATININE: 0.77 mg/dL
  GLUCOSE: 175.67 mg/dL
  PHOSPHORUS: 11.53 mg/dL
  POTASSIUM: 7.6 MEQ/L
  SODIUM: 150.67 MEQ/L
  TOTAL PROTEIN: 6.13 G/DL
[8]
  BASOPHIL: 0%
  EOSINOPHIL: 0%
  ERYTHROCYTE COUNT: 7 x10E6/uL
  HEMATOCRIT: 41.57%
  HEMOGLOBIN: 15.33 G/DL
  LEUKOCYTE COUNT: 13.57 x10E3/uL
  LYMPHOCYTE: 91%
  MEAN CORPUSCULAR HEMOGLOBIN: 21.93 pg
  MEAN CORPUSCULAR HEMOGLOBIN CONCENTRATION: 36.87 G/DL
  MEAN CORPUSCULAR VOLUME: 59.4 fL
  MONOCYTE: 0.33%
  NEUTROPHIL: 8.67%
  PLATELET COUNT: 1231.67 x10E3/uL
  ALANINE AMINOTRANSFERASE: 41 u/L
  ALKALINE PHOSPHATASE: 236.67 u/L
  ASPARTATE AMINOTRANSFERASE: 70.33 u/L
  BLOOD UREA NITROGEN: 14.67 mg/dL
  CHLORIDE: 104.33 MEQ/L
  CHOLESTEROL: 63.33 mg/dL
  CREATINE PHOSPHOKINASE: 157 u/L
  CREATININE: 0.5 mg/dL
  GLUCOSE: 156.33 mg/dL
  PHOSPHORUS: 9.97 mg/dL
  POTASSIUM: 6.37 MEQ/L
  SODIUM: 151.67 MEQ/L
  TOTAL PROTEIN: 6.23 G/DL
